Laboratory results taken from patent publication US20260007758A1, “SO[…]-2 RECEPTOR (SST2R) NON-PEPTIDE DRUG CONJUGATES AND USES THEREOF” (Crinetics Pharmaceuticals, Inc., priority 2024, published 2026).
pEC50: −log10 of the molar value. *1 amine or outer side, *2 acyl side, *3 side chain or, on linkers, in order; H or OH if unused. Where a SMILES comes first, the peptide text is derived from it. [ ]: non-standard residue; d: D form. The star is where a group is joined. X3 = Cc1cc(F)cc(-c2cnc(NCCNC(=O)CCOCCOCCOCCOCCC(=O)*)c(-c3nc4ccc(Cl)cc4[nH]3)c2N2CCC(N)CC2)c1; Dolaproine = CO[C@@H]([C@@H]1CCCN1)[C@@H](C)C(=O)O; Dil = CC[C@H](C)[C@H](NC)[C@@H](CC(=O)O)OC; PABC = O=C(OCc1ccc(N[*:1])cc1)[*:2]; X2 = C[C@@H](N*)[C@@H](O)c1ccccc1; Cit = NC(=O)NCCC[C@H](N)C(=O)O; NMeV = CN[C@H](C(=O)O)C(C)C; Ahx = NCCCCCC(=O)O

What was measured:
Type in all cases: cell-based
[1] = test system: NCI-H524 human small cell lung cancer cells; assay: H524 assay: inhibition of cell proliferation (CellTiter Glo); conditions: 2 h treatment, washout, additional 70 h incubation
How it was run: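 Proliferation was measured by CellTiter Glo 70 h after a washout that followed a 2 h pulse of NDC. Doses were an 11-point, two-fold dilution series from 1 uM. IC50 was fitted with a four-parameter model to luminescence-based % inhibition relative to control cells.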

[2] = target: T1, SST2 (Homo sapiens, UniProt P30874); assay: PathHunter CHO-K1 SST2 Internalization Assay; conditions: PathHunter CHO-K1 SST2 cells; 90 min at 37 C; luminescence; read-out: Internalization EC50
T1 construct: host or cells: PathHunter CHO-K1 SST2 cells
How it was run: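 Four-parameter nonlinear fits of background-corrected luminescence (duplicate means) gave IC50s. NDCs were serially diluted 1:3 over 11 points from a 10 uM final top concentration and incubated 90 min at 37 C with human SST2 CHO-K1 cells plated 48 h earlier at 2500/well. Beta-Glo read-out developed 60 min at RT.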

[3] = target: T2, human somatostatin receptor subtype 2 (Homo sapiens, UniProt P30874); assay: Functional assay for SSTR2 agonists (HTRF cAMP); conditions: CHO-K1 cells stably expressing human SST2; NKH477-stimulated cAMP; 20 min at 37 C; read-out: hSST2 cAMP Avg EC50
T2 construct: expressed in transfected cells
How it was run: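 Agonist activity read as fall in intracellular cAMP: HTRF 665/620 nm ratio regressed to a cAMP standard curve, EC50 fitted. Stable human SSTR2 CHO-K1 cells exposed 20 min at 37 °C to compound, final concentrations typically 0-10,000 nM.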

T1 sequence (P30874 whole entry): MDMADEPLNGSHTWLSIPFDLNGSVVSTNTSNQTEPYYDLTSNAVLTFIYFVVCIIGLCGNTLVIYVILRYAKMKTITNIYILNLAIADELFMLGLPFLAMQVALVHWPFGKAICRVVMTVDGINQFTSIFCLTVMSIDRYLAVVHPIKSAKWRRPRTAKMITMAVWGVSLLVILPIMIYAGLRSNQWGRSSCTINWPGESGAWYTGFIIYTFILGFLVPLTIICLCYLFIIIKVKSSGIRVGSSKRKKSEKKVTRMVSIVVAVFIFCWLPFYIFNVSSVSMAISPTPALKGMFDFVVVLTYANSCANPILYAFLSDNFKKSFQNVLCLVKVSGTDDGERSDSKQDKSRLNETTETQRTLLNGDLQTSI
T2 sequence (P30874 whole entry): as above

Structure (SMILES)	pEC50 [1]	pEC50 [2]	pEC50 [3]
CC[C@H](C)[C@@H]([C@@H](CC(=O)N1CCC[C@H]1[C@H](OC)[C@@H](C)C(=O)N[C@H](C)[C@@H](O)c1ccccc1)OC)N(C)C(=O)[C@@H](NC(=O)[C@H](C(C)C)N(C)C(=O)OCc1ccc(NC(=O)[C@H](CCCNC(N)=O)NC(=O)[C@@H](NC(=O)CCOCCC(=O)NCCNc2ncc(-c3cc(C)cc(F)c3)c(N3CCC(N)CC3)c2-c2nc3ccc(Cl)cc3[nH]2)C(C)C)c(O[C@@H]2O[C@H](C(=O)NCCC(=O)O)[C@@H](O)[C@H](O)[C@H]2O)c1)C(C)C [Compound 49]	8.03	8.47	9.85
CC[C@H](C)[C@@H]([C@@H](CC(=O)N1CCC[C@H]1[C@H](OC)[C@@H](C)C(=O)N[C@H](C)[C@@H](O)c1ccccc1)OC)N(C)C(=O)[C@@H](NC(=O)[C@H](C(C)C)N(C)C(=O)OCc1ccc(NC(=O)[C@H](CCCNC(N)=O)NC(=O)[C@@H](NC(=O)CCOCCC(=O)NCCNc2ncc(-c3cc(C)cc(F)c3)c(N3CCC(N)CC3)c2-c2nc3ccc(Cl)cc3[nH]2)C(C)C)c(C)c1)C(C)C [Compound 9]	8.37	8.60	9.42
CC[C@H](C)[C@@H]([C@@H](CC(=O)N1CCC[C@H]1[C@H](OC)[C@@H](C)C(=O)N[C@H](C)[C@@H](O)c1ccccc1)OC)N(C)C(=O)[C@@H](NC(=O)[C@H](C(C)C)N(C)C(=O)OCc1ccc(NC(=O)[C@H](CCCNC(N)=O)NC(=O)[C@@H](NC(=O)[C@@H](CS(=O)(=O)O)NC(=O)CCOCCC(=O)NCCNc2ncc(-c3cc(C)cc(F)c3)c(N3CCC(N)CC3)c2-c2nc3ccc(Cl)cc3[nH]2)C(C)C)cc1C(=O)N1CC(N)C1)C(C)C [Compound 76]	7.92	8.33	10.12
CC[C@H](C)[C@@H]([C@@H](CC(=O)N1CCC[C@H]1[C@H](OC)[C@@H](C)C(=O)N[C@H](C)[C@@H](O)c1ccccc1)OC)N(C)C(=O)[C@@H](NC(=O)[C@H](C(C)C)N(C)C(=O)OCc1ccc(NC(=O)[C@H](CCCNC(N)=O)NC(=O)[C@@H](NC(=O)C[C@@H](N)C(=O)NCCOCCNC(=O)c2cc(NCCOCCC(=O)NCCNc3ncc(-c4cc(C)cc(F)c4)c(N4CCC(N)CC4)c3-c3nc4ccc(Cl)cc4[nH]3)cc(C(=O)NCC(=O)O)c2)C(C)C)cc1)C(C)C [Compound 163]	7.17	8.20	9.82
CC[C@H](C)[C@@H]([C@@H](CC(=O)N1CCC[C@H]1[C@H](OC)[C@@H](C)C(=O)N[C@H](C)[C@@H](O)c1ccccc1)OC)N(C)C(=O)[C@@H](NC(=O)[C@H](C(C)C)N(C)C(=O)OCc1ccc(NC(=O)[C@H](CCCNC(N)=O)NC(=O)[C@@H](NC(=O)C[C@@H](N)C(=O)NCCOCCC(=O)NCCNc2ncc(-c3cc(C)cc(F)c3)c(N3CCC(NC)CC3)c2-c2nc3cc(F)cc(OC)c3[nH]2)C(C)C)c(O[C@@H]2O[C@H](C(=O)O)[C@@H](O)[C@H](O)[C@H]2O)c1)C(C)C [Compound 123]	8.08	8.64	9.70
CC[C@H](C)[C@@H]([C@@H](CC(=O)N1CCC[C@H]1[C@H](OC)[C@@H](C)C(=O)N[C@H](C)[C@@H](O)c1ccccc1)OC)N(C)C(=O)[C@@H](NC(=O)[C@H](C(C)C)N(C)C(=O)OCc1ccc(NC(=O)[C@H](CCCNC(N)=O)NC(=O)[C@@H](NC(=O)CCOCCC(=O)NCCNc2ncc(-c3cc(C)cc(F)c3)c(N3CCC(N)CC3)c2-c2nc3ccc(Cl)cc3[nH]2)C(C)C)c(O[C@@H]2O[C@H](C(=O)NCC(=O)NCCCCCCO[PH](=O)OC3CCC(c4ccccc4)(c4ccccc4)CC3)[C@@H](O)[C@H](O)[C@H]2O)c1)C(C)C (stereo partly drawn) [Compound 234]	6.85	8.18	9.26
CC[C@H](C)[C@@H]([C@@H](CC(=O)N1CCC[C@H]1[C@H](OC)[C@@H](C)C(=O)N[C@H](C)[C@@H](O)c1ccccc1)OC)N(C)C(=O)[C@@H](NC(=O)[C@H](C(C)C)N(C)C(=O)OCc1ccc(NC(=O)[C@H](CCCNC(N)=O)NC(=O)[C@@H](NC(=O)C[C@@H](N)C(=O)NCCOCCC(=O)NCCNc2ncc(-c3cc(C)cc(F)c3)c(N3CCC(NC)CC3)c2-c2nc3ccc(Cl)cc3[nH]2)C(C)C)c(O[C@@H]2O[C@H](C(=O)O)[C@@H](O)[C@H](O)[C@H]2O)c1)C(C)C [Compound 121]	7.72	8.28	9.85
CC[C@H](C)[C@@H]([C@@H](CC(=O)N1CCC[C@H]1[C@H](OC)[C@@H](C)C(=O)N[C@H](C)[C@@H](O)c1ccccc1)OC)N(C)C(=O)[C@@H](NC(=O)C(C(C)C)N(C)C(=O)OCc1ccc(NC(=O)[C@H](CCCNC(N)=O)NC(=O)[C@@H](NC(=O)CCOCCC(=O)NCCNc2ncc(-c3cc(C)cc(F)c3)c(N3CCC(N)CC3)c2-c2nc3ccc(Cl)cc3[nH]2)C(C)C)c(O[C@@H]2O[C@H](C(=O)N3CC(N)C3)[C@@H](O)[C@H](O)[C@H]2O)c1)C(C)C (stereo partly drawn) [Compound 232]	8.30	8.28	9.82
CC[C@H](C)[C@@H]([C@@H](CC(=O)N1CCCC1[C@H](OC)[C@@H](C)C(=O)N[C@H](C)[C@@H](O)c1ccccc1)OC)N(C)C(=O)[C@@H](NC(=O)[C@H](C(C)C)N(C)C(=O)OCc1ccc(NC(=O)[C@H](CCCNC(N)=O)NC(=O)[C@@H](NC(=O)CCOCCC(=O)N(C)CC(=O)NCCNc2ncc(-c3cc(C)cc(F)c3)c(N3CCC(N)CC3)c2-c2nc3ccc(Cl)cc3[nH]2)C(C)C)c(OC)c1)C(C)C (stereo partly drawn) [Compound 198]	7.49	8.46	10.09
CC[C@H](C)[C@@H]([C@@H](CC(=O)N1CCC[C@H]1[C@H](OC)[C@@H](C)C(=O)N[C@H](C)[C@@H](O)c1ccccc1)OC)N(C)C(=O)[C@@H](NC(=O)[C@H](C(C)C)N(C)C(=O)OCc1ccc(NC(=O)[C@H](C)NC(=O)[C@@H](NC(=O)CCOCCC(=O)NCCN(C)c2ncc(-c3cc(C)cc(F)c3)c(N3CCC(N)CC3)c2-c2nc3ccc(Cl)cc3[nH]2)C(C)C)c(O[C@@H]2O[C@H](C(=O)O)[C@@H](O)[C@H](O)[C@H]2O)c1)C(C)C [Compound 125]	6.24	7.32	9.23
CC[C@H](C)[C@@H]([C@@H](CC(=O)N1CCC[C@H]1[C@H](OC)[C@@H](C)C(=O)N[C@H](C)[C@@H](O)c1ccccc1)OC)N(C)C(=O)[C@@H](NC(=O)[C@H](C(C)C)N(C)C(=O)OCc1ccc(NC(=O)[C@H](CCCNC(N)=O)NC(=O)[C@@H](NC(=O)[C@H](CCC(=O)O)NC(=O)CCOCCC(=O)NCCNc2ncc(-c3cc(C)cc(F)c3)c(N3CCC(N)CC3)c2-c2nc3ccc(Cl)cc3[nH]2)C(C)C)cc1C(=O)NOCCN)C(C)C [Compound 90]	6.32	8.26	9.18
CC[C@H](C)[C@@H]([C@@H](CC(=O)N1CCC[C@H]1[C@H](OC)[C@@H](C)C(=O)N[C@H](C)[C@@H](O)c1ccccc1)OC)N(C)C(=O)[C@@H](NC(=O)[C@H](C(C)C)N(C)C(=O)OCc1ccc(NC(=O)[C@H](CCCNC(N)=O)NC(=O)[C@@H](NC(=O)CCCCCNC(=O)[C@H](CCC(=O)O)NC(=O)[C@H](CCC(N)=O)NC(=O)CCOCCOCCOCCOCCC(=O)NCCNc2ncc(-c3cc(C)cc(F)c3)c(N3CCC(N)CC3)c2-c2nc3ccc(Cl)cc3[nH]2)C(C)C)cc1)C(C)C [Compound 192] (X3-QE[Ahx]V[Cit][PABC][NMeV]V[Dil][Dolaproine]-X2)	5.89	7.92	9.43
